Laboratory results taken from US8951999B2, “Compounds” (Orexo AB, priority 2009, dated 2015).

Target: T1, recombinant human mPGES-1 (Homo sapiens, UniProt O14684)
T1 sequence (O14684 1-152): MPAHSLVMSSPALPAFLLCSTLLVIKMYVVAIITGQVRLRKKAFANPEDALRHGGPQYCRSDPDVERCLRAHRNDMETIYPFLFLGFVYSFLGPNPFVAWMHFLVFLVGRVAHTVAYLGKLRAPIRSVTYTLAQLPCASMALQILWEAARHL
Assay: Assay B: mPGES-1 enzyme assay (modified)
Assay type: biochemical
Conditions: biological assay B (all other compounds); PGH2 final conc. 2 μM, HTRF; read-out: mPGES-1 inhibitory effect IC50
Description: Assay B: mPGES-1 Enzyme Assay (Modified)
The aim of this assay is to determine the affinity of a test compound for the mPGES-1 enzyme.
47 μl of recombinant human mPGES-1 (˜0.5 μg protein/well) containing microsomal suspension in a buffer containing GSH, (2.5 mmol/L L-Glutathione reduced, dissolved in 0.1 mol/L Phosphat Buffer pH 7.4) is dispensed in a 384-well plate and thereafter 1 μl of the test compound(s) is/are added and incubated for 25 minutes at room temperature. The enzyme reaction is started by the addition of 2 ul PGH2 (final conc. 2 μM) dissolved in water-free Diglyme. After 60 seconds the reaction is terminated by addition of a stop solution containing FeCl2 (10 μL 0.074 mol/l FeCl2). The samples are diluted between 1:25 in PBS (Phosphate Buffered Saline). 10 μl of the diluted samples are transferred to 384-well low volume plate. In order to quantify the amount of PGE2 that has been formed, a homogenous time resolved fluorescent (HTRF) detecting of PGE2 has been performed using a commercially available kit from Cisbio according to the manufactures recommendation. This HTRF-based assay has been described in detail (see: Goedken et al., J Biomol Screen, 2008, 13(7), 619-625). Briefly, the diluted samples are mixed with […] PGE2-d2 conjugate and 5 μl anti-PGE2 cryptate conjugate. After an incubation period of the plates over night, the fluorescence is measured by the use of an appropriate microplate reader.
The fluorescence of Europium cryptate (maxex=307 nm, maxem=620 nm) and d2-PGE2 (maxex=620 nm, maxem=665 nm) are measured.
The extent of the specific HTRF is measured as a ratio of the emission intensity at 665 nm vs. that at 620 nm at an excitation pulse of 320 nm. The quantification plate contains also wells with different concentrations of PGE2 as calibration curve for the calculation of the PGE2 concentrations from the HTRF ratio values.
From all mPGES enzyme assay the background is subtracted and the IC50 is calculated over a nonlinear regression with conventional software.

SMILES | IC50 [nM]
COCCOc1ccc(NC(=O)c2cc(CNC(=O)C3(C(F)(F)F)CC3)ccc2Cl)cc1C(=O)N[C@H]1CC[C@H](C(F)(F)F)CC1 [Example 53, N-[4-(2-Methoxy)ethoxy-3-(trans-4-trifluoromethylcyclohexyl)aminocarbonyl-phenyl]-2-chloro-5-[1-(trifluoromethyl)cyclopropyl]carbonylaminomethyl-benzamide] | 11
CC(C)(C(=O)NCc1ccc(Cl)c(C(=O)Nc2ccc(OC3CCOC3)c(C(=O)Nc3ccc(Br)cc3)c2)c1)C(F)(F)F (stereo not drawn) [Example 69] | 4
CC(C)(C(=O)NCc1ccc(Cl)c(C(=O)Nc2ccc(OCC(F)F)c(C(=O)NC3CCC(CO)CC3)c2)c1)C(F)(F)F (stereo not drawn) [Example 103] | 237
CC(C)(C(=O)NCc1ccc(Cl)c(C(=O)Nc2ccc(OCC(F)F)c(C(=O)Nc3cc(Cl)c4cc[nH]c4c3)c2)c1)C(F)(F)F [Example 144] | 7
CC(C)(C(=O)NCc1ccc(Cl)c(C(=O)Nc2ccc(OCC(F)F)c(C(=O)Nc3cccc(Cl)c3)c2)c1Cl)C(F)(F)F [Example 150] | 2
O=C(Nc1ccc(OCC(F)F)c(C(=O)Nc2ccc(Br)cc2)c1)c1cc(CNC(=O)C(F)(F)F)ccc1Cl [Example 80] | 10
CC(C)(C)C(=O)NCc1ccc(Cl)c(C(=O)Nc2ccc(N3CCC(C(F)(F)F)CC3)c(C(=O)NCC3CC3)c2)c1 [Example 63] | 5
CC(C)(C(=O)NCc1ccc(Cl)c(C(=O)Nc2ccc(OCC(F)F)c(C(=O)Nc3c(F)ccc(F)c3F)c2)c1F)C(F)(F)F [Example 79] | 5
CC(C)(C(=O)NCc1ccc(Cl)c(C(=O)Nc2ccc(OCC(F)F)c(C(=O)Nc3ncc(Cl)s3)c2)c1)C(F)(F)F [Example 83] | 7
CC(C)(C(=O)NCc1ccc(Cl)c(C(=O)Nc2ccc(OCC(F)F)c(C(=O)NCC(F)(F)C(F)(F)F)c2)c1)C(F)(F)F [Example 114] | 10
CC(C)(C(=O)NCc1ccc(Cl)c(C(=O)Nc2ccc(OCC(F)F)c(C(=O)NCCC(F)(F)F)c2)c1)C(F)(F)F [Example 115] | 15
CC(C)(C(=O)NCc1ccc(Cl)c(C(=O)Nc2ccc(OCC(F)F)c(C(=O)NCC3(O)CC3)c2)c1)C(F)(F)F [Example 102] | > 100
CC(C)(C)C(=O)NCc1ccc(F)c(C(=O)Nc2ccc(F)c(C(=O)Nc3ccc(Br)cc3)c2)c1F [Example 49, N-[4-Fluoro-3-(4-bromophenyl)aminocarbonyl-phenyl]-2,6-difluoro-3-(tert-butylcarbonylamino)methyl-benzamide] | 120
N#CC1(C(=O)NCc2ccc(Cl)c(C(=O)Nc3ccc(OCC(F)F)c(C(=O)Nc4ccc(Br)cc4)c3)c2)CC1 [Example 173] | 48
O=C(Nc1ccc(OCC(F)F)c(C(=O)Nc2ccc(Br)cc2)c1)c1cc(CNC(=O)C2CCCN2c2nccs2)ccc1Cl (stereo not drawn) [Example 164] | 79
CC(C)(C(=O)NCc1ccc(Cl)c(C(=O)Nc2ccc(OCC(F)F)c(C(=O)NC3CCCC3)c2)c1)C(F)(F)F [Example 111] | 7
CC(C)(C(=O)NCc1ccc(Cl)c(C(=O)Nc2ccc(OCC(F)F)c(C(=O)NCCC3CC3)c2)c1)C(F)(F)F [Example 143] | 6
CC(C)(C(=O)NCc1ccc(Cl)c(C(=O)Nc2ccc(OCC(F)F)c(C(=O)Nc3ccncn3)c2)c1)C(F)(F)F [Example 118] | 98
CC(NC(=O)c1cc(NC(=O)c2cc(CNC(=O)C(C)(C)C(F)(F)F)ccc2Cl)ccc1OCC(F)F)C(F)(F)F (stereo not drawn) [Example 99] | 7
Cc1ccc(Cl)cc1NC(=O)c1cc(NC(=O)c2cc(CNC(=O)C(C)(C)C(F)(F)F)ccc2Cl)ccc1OCC(F)F [Example 86] | 5
CC(C)(C(=O)NCc1ccc(Cl)c(C(=O)Nc2ccc(OCC(F)F)c(C(=O)Nc3ccc(Br)c(F)c3)c2)c1)C(F)(F)F [Example 133] | 6
CC(C)(C(=O)NCc1ccc(Cl)c(C(=O)Nc2ccc(OCC(F)F)c(C(=O)Nc3ccc(F)c(Cl)c3)c2)c1)C(F)(F)F [Example 128] | 5
CC(C)(C)C(=O)NCc1ccc(Cl)c(C(=O)Nc2ccc(OCC(F)F)c(C(=O)Nc3ccc(F)c(Cl)c3)c2)c1F [Example 46, N-[4-(2,2-Difluoroethyl)oxy-3-(4-fluoro-3-chloro-phenyl)aminocarbonyl-phenyl]-6-chloro-2-fluoro-3-(tert-butylcarbonylamino)methyl-benzamide] | 5

SMILES | IC50 [nM]
CC(C(=O)NCc1ccc(Cl)c(C(=O)Nc2ccc(OCC(F)F)c(C(=O)Nc3ccc(Br)cc3)c2)c1)N1CCCC1 (stereo not drawn) [Example 170] | 50
O=C(Nc1ccc(OC2CCOC2)c(C(=O)N[C@H]2CC[C@H](C(F)(F)F)CC2)c1)c1cc(CNC(=O)C2(C(F)(F)F)CC2)ccc1Cl (stereo partly drawn) [Example 68] | 9
CC(C)(C)C(=O)NCc1ccc(Cl)c(C(=O)Nc2ccc(N3CCC(F)(F)CC3)c(C(=O)Nc3ccc(Br)cc3)c2)c1Cl [Example 181] | 2
COCCOc1ccc(NC(=O)c2cc(CNC(=O)C(C)C(F)(F)F)ccc2Cl)cc1C(=O)Nc1ccc(Br)cc1 (stereo not drawn) [Example 65, N-[4-(2-Methoxy)ethoxy-3-(4-bromphenyl)aminocarbonyl-phenyl]-2-chloro-5-(2,2,2-trifluoro-1-methyl-ethyl)carbonylaminomethyl-benzamide] | 4
CC(C)(C#N)C(=O)NCc1ccc(Cl)c(C(=O)Nc2ccc(OCC(F)F)c(C(=O)Nc3ccc(Br)cc3)c2)c1 [Example 165] | 8
CC(C)(C(=O)NCc1ccc(Cl)c(C(=O)Nc2ccc(OCC(F)F)c(C(=O)NCC3CC3)c2)c1Cl)C(F)(F)F [Example 152] | 11
CC(C)CNC(=O)c1cc(NC(=O)c2cc(CNC(=O)C(C)(C)C(F)(F)F)ccc2Cl)ccc1OCC(F)F [Example 140] | 8
CC(C)(C(=O)NCc1ccc(Cl)c(C(=O)Nc2ccc(OCC(F)F)c(C(=O)Nc3ccc(Cl)c(F)c3)c2)c1Cl)C(F)(F)F [Example 156] | 1
CC(C)(C(=O)NCc1ccc(Cl)c(C(=O)Nc2ccc(OCC(F)F)c(C(=O)Nc3ccc(F)c(Cl)c3F)c2)c1)C(F)(F)F [Example 134] | 7
CC(C)(C(=O)NCc1ccc(Cl)c(C(=O)Nc2ccc(OCC(F)F)c(C(=O)NCCC(F)(F)F)c2)c1Cl)C(F)(F)F [Example 146] | 14
Cc1ccc(CNC(=O)C(C)(C)C)c(Cl)c1C(=O)Nc1ccc(OCC(F)F)c(C(=O)Nc2ccc(Br)cc2)c1 [Example 52, N-[4-(2,2-Difluoroethyl)oxy-3-(4-bromophenyl)aminocarbonyl-phenyl]-2-chloro-6-methyl-3-(tert-butylcarbonylamino)methyl-benzamide] | 4
CC(C)(C(=O)NCc1ccc(Cl)c(C(=O)Nc2ccc(OCC(F)F)c(C(=O)NCCCC(F)(F)F)c2)c1)C(F)(F)F [Example 121] | 11
CC(C)(C(=O)NCc1ccc(Cl)c(C(=O)Nc2ccc(OCC(F)F)c(C(=O)NCc3ccc(C(F)(F)F)cc3)c2)c1)C(F)(F)F [Example 104] | 10
CC(C)(C)C(=O)NCc1ccc(Cl)c(C(=O)Nc2ccc(N3CC(F)(F)C3)c(C(=O)Nc3ccc(Br)cc3)c2)c1 [Example 60, N-[4-(3,3-Difluoro-azetidin-1-yl)-3-(4-bromphenyl)aminocarbonyl-phenyl]-2-chloro-5-(tert-butylcarbonylamino)methyl-benzamide] | 26
CC1(C)CC1CNC(=O)c1cc(NC(=O)c2cc(CNC(=O)C(C)(C)C(F)(F)F)ccc2Cl)ccc1OCC(F)F (stereo not drawn) [Example 107] | 5
CC(C)(C(=O)NCc1ccc(Cl)c(C(=O)Nc2ccc(OCC(F)F)c(C(=O)Nc3ccccc3Cl)c2)c1)C(F)(F)F [Example 139] | 6
CC1(C(=O)NCc2ccc(Cl)c(C(=O)Nc3ccc(OCC(F)F)c(C(=O)Nc4ccc(Br)cc4)c3)c2)CCCO1 (stereo not drawn) [Example 163] | 6
COC(C)(C)C(=O)NCc1ccc(Cl)c(C(=O)Nc2ccc(OCC(F)F)c(C(=O)Nc3ccc(Br)cc3)c2)c1 [Example 160] | 7
CC(C)(C)C(=O)NCc1ccc(Cl)c(C(=O)Nc2ccc(N3CCC(F)(F)C3)c(C(=O)Nc3ccc(Br)cc3)c2)c1Cl [Example 179] | 4
CC(C)(C(=O)NCc1ccc(Cl)c(C(=O)Nc2ccc(OCC(F)F)c(C(=O)Nc3ccc(F)cc3Cl)c2)c1)C(F)(F)F [Example 116] | 6
Cc1cc(NC(=O)c2cc(NC(=O)c3cc(CNC(=O)C(C)(C)C(F)(F)F)ccc3Cl)ccc2OCC(F)F)ccc1Cl [Example 92] | 6
CC(C)(C(=O)NCc1ccc(Cl)c(C(=O)Nc2ccc(OCC(F)F)c(C(=O)NC3CCc4ccccc4C3)c2)c1)C(F)(F)F (stereo not drawn) [Example 85] | 6
